Assay results published in patent US5482867A, “Spatially-addressable immobilization of anti-ligands on surfaces” (Affymax Technologies N.V., priority 1993, dated 1996).
“Also recorded” adds a separate entry of the source.

Experiments:
[1] = target: T1, Avidin (Streptomyces avidinii, UniProt P22629); details: SBS: Avidin; cited from earlier work
[2] = target: T2, streptavidin (Streptomyces avidinii, UniProt P22629); test: Scanning fluorescence imaging of Fluorescein-Biotin binding to streptavidin immobilized on a slide; details: 1 μM Fluorescein-Biotin, 20 minutes
T2 construct: purchased Amersham
Experimental: The microscope slide of Example I having NVOC-biotin covalently attached via a caproic-propyl spacer was illuminated and processed as in Example J, except that after preincubation with the PBS/BSA/Tween 20 solution, the surface was treated with 10 μg/ml solution of Streptavidin (in PBS/BSA/Tween 20) for 40 minutes at room temperature, followed by incubation with a 1 μM solution of Fluorescein-Biotin (5-(N-((5-(N-(6-(biotinoyl)amino) hexanoyl)amino)pentyl)thioureidyl)fluorescein, in PBS, pH 7.4) for 20 minutes. The resulting slide was then washed, dried, and examined using a scanning fluorescence microscope as described above.

[3] = Chromatographic (reverse-phase HPLC) evidence for photoremoval of the NVOC group in solution; assay type: physicochemical; details: 100 mM, two minutes, 1 watt/cm^2, 500 W Hg(Xe) arc lamp, 305 nm long pass filter; NVOC-biotin-ONP in acetonitrile, biotin in water
Description: The cuvette was irradiated for two minutes at a power of 1 watt/cm^2 with a 500 W Hg(Xe) arc lamp (Oriel #66142) having a 305 nm long pass filter (Oriel #51450). Illuminated and non-illuminated samples were then subjected to reverse-phase HPLC.

[4] = target: T2, streptavidin; test: Scanning fluorescence imaging of Fluorescein-Streptavidin binding to caged-biotin glass slides after photodeprotection; details: NPOC, caproic-propyl spacer
Experimental: Commercially available glass microscope slides were derivatized with N-BOC-aminopropyltriethoxy silane according to literature procedures (for example, see J. Chromatography, 1974, Vol. 97, p. 33). The slides were incubated in a solution of 20% trifluoroacetic acid in methylene chloride for 30 minutes to remove the BOC protecting group. After washing sequentially with methylene chloride, dimethylformamide, and ethanol, the slides were neutralized by immersing in a solution of 10% diisopropylethyl amine in methylene chloride for 30 minutes and further washed with methylene chloride.
N-BOC-6-aminocaproic acid was converted to the BOP-activated ester in preparation for reaction with the derivatized glass slide. […]
[…], as described in the Example I, was mounted on a custom flow cell and illuminated through a 500 μm×500 μm checkerboard-pattern mask (Photo Sciences Inc., Torrance, Calif.) using broad-band UV/blue light. The light source was a 500 W Mercury arc lamp (Oriel Model 87330) equipped with a 350 nm-450 nm dichroic reflector and produced actinic light having an intensity of 12 mW/cm^2 as measured through a 360 nm bandpass filter. […]

[5] = target: T1, Avidin; test: Blocking of subsequent 3H-biotin binding in streptavidin-treated microtiter wells
Experimental: All procedures using NVOC-biotin-OMe were conducted in dim red light. NVOC-biotin-OMe was dissolved in dimethylformamide (DMF) to a concentration 1 mM and diluted to 100 μM with phosphate-buffered saline pH 7.4. In order to remove any contaminants having high affinity for avidin, 2 ml of the NVOC-biotin-OMe solution was mixed with 1 ml of packed streptavidin-Sepharose-4B resin (SIGMA) which had been washed thoroughly to remove any non-covalently bound avidin. After stirring for three hours, the resin was removed by centrifugation followed by filtration (0.2 micron nylon filter).
Microtiter wells (Beckman EIA plates) were treated for 1 hr with 200 μl of 0.5 μg/ml of streptavidin in 10 mM sodium bicarbonate buffer (pH 9.6). […] The wells were then washed with PBS/Tween 20 and incubated for 1 hr at room temperature with 200 μl of PBS containing ^3 H-biotin (30 Ci/mmol, New England Nuclear). The wells were then washed with PBS/Tween and treated for 30 minutes at room temperature with 200 μl of 10% trichloroacetic acid in water. The radioactivity in 100 μl was then determined by liquid scintillation counting.

[6] = test system: avidin or streptavidin; details: cited from earlier work

T1 sequence (P22629 25-183): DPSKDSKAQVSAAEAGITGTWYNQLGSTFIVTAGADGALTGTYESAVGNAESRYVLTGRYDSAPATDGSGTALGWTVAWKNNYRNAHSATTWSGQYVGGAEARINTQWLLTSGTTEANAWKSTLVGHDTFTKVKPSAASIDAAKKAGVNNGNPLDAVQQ
T2 sequence (P22629 25-183): as above

In the case of N=C1NC2CSC(CCCCC(=O)O)C2N1 (stereo not drawn) [Iminobiotin], the “Affinity (Ka)” value [1] is listed as 10^11 M^-1.
For O=C(CCCCCNC(=O)CCCC[C@@H]1SC[C@@H]2NC(=O)N[C@@H]21)NCCCCCNC(=S)Nc1ccc2c(c1)C(=O)OC21c2ccc(O)cc2Oc2cc(O)ccc21 [Fluorescein-Biotin, 5-(N-((5-(N-(6-(biotinoyl)amino)hexanoyl)amino)pentyl)thioureidyl)fluorescein], the “binding of Fluorescein-Biotin to immobilized streptavidin (fluorescence image)” value [2] was “high fluorescence intensity”.
For COc1cc(COC(=O)N2C(=O)N[C@@H]3[C@H](CCCCC(=O)Oc4ccc([N+](=O)[O-])cc4)SC[C@@H]32)c([N+](=O)[O-])cc1OC [NVOC-biotin-ONP, N-1'-(6-nitroveratryloxycarbonyl)-biotin para-nitrophenyl ester], the “result of illumination (HPLC)” value [3] was “converted to biotin-ONP upon illumination; also recorded: converted to Biotin-ONP by the illumination”.
With O=C(CCCC[C@@H]1SC[C@H]2[C@@H]1NC(=O)N2C(=O)OCc1cc2c(cc1[N+](=O)[O-])OCO2)Oc1ccc([N+](=O)[O-])cc1 [NPOC-biotin-ONP, N-1'-(6-nitropiperonyloxycarbonyl)-biotin para-nitrophenyl ester] the “streptavidin binding upon photodeprotection (fluorescence image)” value [4] was “spatially-localized streptavidin binding”.
With O=C(O)CCCC[C@@H]1SC[C@@H]2NC(=O)N[C@@H]21 [Biotin, reference compound] the “result of illumination (HPLC)” value [3] was “unaffected by the illumination”.
In the case of COC(=O)CCCCC1SCC2C1NC(=O)N2C(=O)OC (stereo not drawn) [1'-N-methoxy-carbonylbiotin methyl ester], the “Affinity (Ka)” value [1] is listed as 10^7 M^-1.
For COC(=O)CCCCC1SCC2NC(=O)N(C(=O)OC)C21 (stereo not drawn) [3'-N-methoxy-carbonylbiotin methyl ester], the “Affinity (Ka)” value [1] is given as 10^9 M^-1.
In the case of COC(=O)CCCC[C@@H]1SC[C@H]2[C@@H]1NC(=O)N2C(=O)OCc1cc(OC)c(OC)cc1[N+](=O)[O-] [NVOC-biotin-OMe, N-1'-(6-nitroveratryloxycarbonyl)-biotin methyl ester], the affinity for avidin ([5]; after illumination in solution) is reported as “high affinity”, the “effectiveness in blocking the subsequent binding of 3H-biotin” value ([5]; illuminated (IL caged biotin), compared with biotin) is reported as “nearly as effective as biotin” and the “effect on the subsequent binding of 3H-biotin” value ([5]; non-illuminated, concentrations as high as 10^-5 M) is reported as “no significant effect”. For the same compound, the affinity for avidin ([5]; prior to illumination) was “low affinity; also recorded: very low affinity”.
In the case of CN(CCCNC(=O)CCCC[C@@H]1SC[C@@H]2NC(=O)N[C@@H]21)CCCNc1ccc(N=[N+]=[N-])cc1[N+](=O)[O-] [photobiotin], the “effect of carboxylate-terminus derivatization on binding to avidin or streptavidin” value [6] is listed as “does not significantly reduce binding to avidin or streptavidin”.
